Source: patent US20090030088A1, “Therapeutic benefits of gossypol, 6-methoxy gossypol, and 6,6'-dimothxy gossypol” (Clemson University, priority 2007, published 2009)

Columns and labels:
[1] = test system: Trypanosome brucei cells; experiment: Anti-trypanosomal activity, relative cell viability by flow cytometry; type: cell-based
Description: Anti-trypanosomal activities. Trypanosome brucei cells were grown in HMI-9 medium supplemented with 10% heat-inactivated fetal bovine serum and cultured as described by (13). Prior to treatment, 200 μL of the cells were seeded into 96-well tissue culture plate and treated with 2 μL of gossypol or methoxy gossypol derivatives dissolved in DMSO. After 24 hour incubation at 37° C. with 5% CO2 and 90-100% relative humidity, the cells were counted on a Becton Dickinson FACScan flow Cytometer, and the relative cell viability was calculated by comparing the vital cell number with control wells treated only with DMSO. Statistical Analysis. Each experiment was done at least three times, mean values were average of the triplicates, and the data were subjected to the analysis of variance (ANOVA).

[2] = test system: SiHa (cervical cancer cell line); experiment: Cancer cell proliferation assay (CellTiter 96), SiHa; type: cell-based; settings: 10 ppm
Description: (§1) Anticancer Activities. Three cancer cell lines, MCF-7 (human breast cancer cell line), Caco-2 (human colon cancer cell line) and SiHa (cervical cancer cell line) were purchased from American Type Culture Collection (ATCC) (Rockville, Md.). MCF-7 and SiHa were cultured in RPMI-1640 with L-glutamine (2 mM), sodium pyruvate (1 mM), penicillin (100 unit/mL), streptomycin (0.1 mg/mL), 0.1 mM non-essential amino acids, 2.0 g/L sodium bicarbonate and 10% newborn calf serum. For Caco-2 cells, 10% fetal bovine serum was added instead of 10% newborn calf serum. All cell lines were incubated at 37° C. with 5% CO2 and 90-100% relative humidity. Medium renewal was carried out 2-3 times per week, and cells were subcultured when they were about 80-90% confluence.
(§2) Prior to chemical treatment, 10^4 cells/well (100 μL) were seeded into a 96-well tissue culture plate, and allowed to attach for 24 hours, then treated with defined concentrations of the tested chemicals in DMSO. Negative controls were cells treated with DMSO only, and DMSO concentration was kept 2% in each well. After 24 hour incubation, cell proliferation was determined using the CellTiter 96® aqueous nonradioactivity cell proliferation assay according to the manufacture's recommendations (Promega, Madison, Wis.) and recorded on universal EL800 Bio-Tek microplate reader at 490 nm.

[3] = DPPH free radical scavenging assay; settings: for concentration to scavenge 50% free radicals (IC50 value): DPPH in DCM, 30 min
Description: DPPH Free Radical Scavenging Assay. Scavenging activities on DPPH free radicals by gossypol and methoxy gossypol derivatives were determined according to the method of (9) with slight modification. The reaction mixture was made by mixing 0.4 mL of sample solution in DCM and same volume of 0.25 mM DPPH in DCM, shaken vigorously, incubated for 30 min in the dark at room temperature, and measured spectrophotometrically at 517 nm. BHT, a common used antioxidant, was used as a standard for comparison. The lower absorbance of reaction mixture indicated higher free radical scavenging activity, and the reduction of DPPH free radicals was calculated as following: […]

[4] = test system: plasmid DNA; experiment: DNA strand scission assay (H2O2/UV hydroxyl radicals); parameters: species or system E. coli; settings: no oxidative stress
Description: Analysis of DNA Strand Breakage. The DNA strand scission assay was performed as described by Keum et al., (11) with minor modifications. The plasmid DNA was prepared and purified from E. coli cultures by the method (12). The reaction mixture (15 μL) contained 10 mM Tris-HCl, 1 mM EDTA buffer (pH 8.0), plasmid DNA (1 μL), and H2O2 (0.04 M). Gossypol and methoxy gossypol derivatives dissolved in DMSO at the defined concentrations were added prior to H2O2 addition. Hydroxyl radicals were generated by irradiation of the reaction mixture at a distance of 30 cm with a 12 W UV lamp. After incubation at room temperature for 30 min, the reaction was stopped by adding a loading buffer (0.25% bromophenol blue tracking dye and 40% sucrose), and analyzed by 1% agarose gel electrophoresis. The gel was visualized by staining with ethidium bromide, and photographed on a transiluminator (Biorad).

[5] = test system: Caco-2 (human colon cancer cell line); experiment: Cancer cell proliferation assay (CellTiter 96), Caco-2; type: cell-based; settings: 10 ppm
Description: as §1, §2

[6] = test system: MCF-7 (human breast cancer cell line); experiment: Cancer cell proliferation assay (CellTiter 96), MCF-7; type: cell-based; settings: 10 ppm
Description: as §1, §2

In the case of `COc1c(O)c(C=O)c2c(O)c(-c3c(C)cc4c(C(C)C)c(O)c(O)c(C=O)c4c3O)c(C)cc2c1C(C)C` [6-methoxy gossypol], the “inhibition of trypanosome cell growth” value ([1]; 1 ppm, 24 hour incubation) was 40%, the “cancer inhibitive activity compared with gossypol” value [2] was “higher cancer inhibitive activity than gossypol” and the “concentration to scavenge 50% free radicals (IC50 value)” value [3] was 16.4 ppm. For the same compound, the free radicals scavenged ([3]; compound at 20 ppm) was 60%, the “DNA damage by the presence of the chemical alone” value [4] was “did not cause the DNA damage” and the “cancer inhibitive activity compared with gossypol” value [5] was “higher cancer inhibitive activity than gossypol”. For the same compound, the “cancer inhibitive activity compared with gossypol” value [6] was “higher cancer inhibitive activity than gossypol”.
For `COc1c(O)c(C=O)c2c(O)c(-c3c(C)cc4c(C(C)C)c(OC)c(O)c(C=O)c4c3O)c(C)cc2c1C(C)C` [6,6′-dimethoxy gossypol], the “cancer inhibitive activity compared with gossypol” value [2] was “higher cancer inhibitive activity than gossypol”, the “concentration to scavenge 50% free radicals (IC50 value)” value [3] was 16.8 ppm and the free radicals scavenged ([3]; compound at 20 ppm) was 60%. For the same compound, the “cancer inhibitive activity compared with gossypol” value [5] was “higher cancer inhibitive activity than gossypol” and the “cancer inhibitive activity compared with gossypol” value [6] was “higher cancer inhibitive activity than gossypol”.
For `Cc1cc2c(C(C)C)c(O)c(O)c(C=O)c2c(O)c1-c1c(C)cc2c(C(C)C)c(O)c(O)c(C=O)c2c1O` [gossypol], the inhibition at 1 ppm ([1]; 24 h, read-out: inhibition of trypanosome cell growth) was 40% and the “DNA damage by the presence of the chemical alone” value [4] was “did not cause the DNA damage”.
For `Cc1cc(C(C)(C)C)c(O)c(C(C)(C)C)c1` [BHT, butylated hydroxytoluene, reference compound], the free radicals scavenged ([3]; BHT at 1000 ppm) was ~60% and the free radicals scavenged ([3]; BHT at 1500 ppm) was 75%.
